According to PMC8523698, “Preclinical characterization of an intravenous coronavirus 3CL protease inhibitor for the potential treatment of COVID19” (Nature Communications, 2021):
Several values for one entry are separate records, joined by “and”; a condition that tells them apart may be missing. Equal values may be shown once. Read-outs that look alike come from different tables or passages of the source.

What was measured:
[1] = Human pharmacokinetic, Ceff and dose predictions; settings: Fig 6C reference line, drawn from 0 to 72 h; head gives 500 nM
[2] = read-out: competitive Ki; vendor-verified compound file; ref Simcyp library; cited from earlier work
[3] = test system: SARS-CoV-2 Washington strain 1 (USA_WA1/2020); assay type: cell-based; design: Percent Effect / Percent Effect (EC50 data): scale not given: direction of the effect not stated beside the values
[4] = test system: HCoV-229E; experiment: Viral CPE assay in MRC-5 cells (CellTiter Glo); assay type: cell-based
[5] = test system: MRC-5 cells; experiment: Cytotoxicity in MRC-5 cells
[6] = test system: VeroE6-EGFP cells
[7] = target: MDR1/P-gp (Homo sapiens, UniProt P08183); experiment: Transporter inhibition using membrane vesicles; settings: uptake of N-methyl quinidine by MDR1; control inhibitor concentration 4.000 uM; single replicates
Sequence of MDR1/P-gp (P08183 whole entry, the tested form may be a part): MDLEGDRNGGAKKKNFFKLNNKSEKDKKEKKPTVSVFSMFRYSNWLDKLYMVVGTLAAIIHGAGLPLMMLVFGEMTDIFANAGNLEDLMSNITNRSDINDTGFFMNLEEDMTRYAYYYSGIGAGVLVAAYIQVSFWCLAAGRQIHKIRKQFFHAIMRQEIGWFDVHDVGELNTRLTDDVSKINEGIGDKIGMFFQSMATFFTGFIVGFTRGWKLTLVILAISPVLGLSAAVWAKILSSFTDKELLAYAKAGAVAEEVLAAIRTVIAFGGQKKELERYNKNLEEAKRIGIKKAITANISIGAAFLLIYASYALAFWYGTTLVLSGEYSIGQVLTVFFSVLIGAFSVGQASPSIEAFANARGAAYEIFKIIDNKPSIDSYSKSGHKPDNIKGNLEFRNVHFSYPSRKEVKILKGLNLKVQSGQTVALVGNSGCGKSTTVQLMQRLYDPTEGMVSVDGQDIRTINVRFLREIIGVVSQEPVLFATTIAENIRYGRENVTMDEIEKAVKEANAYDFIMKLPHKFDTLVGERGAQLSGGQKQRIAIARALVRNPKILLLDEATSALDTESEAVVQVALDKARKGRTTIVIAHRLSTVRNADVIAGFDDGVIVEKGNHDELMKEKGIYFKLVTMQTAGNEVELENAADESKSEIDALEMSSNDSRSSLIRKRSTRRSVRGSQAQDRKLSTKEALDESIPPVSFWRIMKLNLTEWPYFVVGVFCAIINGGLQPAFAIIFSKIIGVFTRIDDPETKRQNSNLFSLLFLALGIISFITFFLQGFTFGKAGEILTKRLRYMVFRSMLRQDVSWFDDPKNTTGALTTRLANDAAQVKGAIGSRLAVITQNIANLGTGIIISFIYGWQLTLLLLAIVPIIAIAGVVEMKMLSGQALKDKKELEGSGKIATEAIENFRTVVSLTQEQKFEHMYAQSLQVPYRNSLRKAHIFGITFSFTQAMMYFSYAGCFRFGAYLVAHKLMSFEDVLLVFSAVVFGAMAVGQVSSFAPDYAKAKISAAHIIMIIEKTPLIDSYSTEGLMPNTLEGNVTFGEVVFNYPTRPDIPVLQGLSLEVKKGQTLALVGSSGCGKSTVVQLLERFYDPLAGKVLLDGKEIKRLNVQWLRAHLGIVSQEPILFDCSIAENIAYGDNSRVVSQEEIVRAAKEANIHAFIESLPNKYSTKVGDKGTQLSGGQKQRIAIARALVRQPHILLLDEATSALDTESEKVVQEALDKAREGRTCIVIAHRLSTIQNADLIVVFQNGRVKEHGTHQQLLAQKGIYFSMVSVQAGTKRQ

[8] = Rat 24-h continuous intravenous infusion GLP toxicity study; assay type: in vivo, Sprague-Dawley rats; settings: Fig 6C reference line 0 to 72 h

SMILES: COc1cccc2[nH]c(C(=O)N[C@@H](CC(C)C)C(=O)N[C@@H](C[C@@H]3CCNC3=O)C(=O)CO)cc12 [Active]
- Ceff SARS-COV2 (+P-gp inhib)= 500 nM [1]: 0.5

SMILES: CC(O)C(C)n1ncn(-c2ccc(N3CCN(c4ccc(OCC5COC(Cn6cncn6)(c6ccc(Cl)cc6Cl)O5)cc4)CC3)cc2)c1=O (stereo not drawn) [OH-itraconazole]
- Ki [2]: 0.0023 µM

SMILES: COc1cccc2[nH]c(C(=O)N[C@@H](CC(C)C)C(=O)N[C@@H](C[C@@H]3CCNC3=O)C(=O)COP(=O)(O)O)cc12 [PF-07304814-00]
- Percent Effect ([3]; 0.00976562 uM): 0.053% and 0.085%
- Percent Effect ([3]; 0.0195312 uM): 2.09% and 3.15%
- Percent Effect ([3]; 0.0390625 uM): 0.085% and 9.35%
- Percent Effect ([3]; 0.078125 uM): -0.27% and 0.54%
- Percent Effect (EC50 data) ([3]; 0.195312 uM): -0.82%
- Percent Effect ([3]; 0.3125 uM): 2.28% and 1.63%
- Percent Effect ([3]; 0.390625 uM): 7.76% and 0.81% and 1.70% and 4.09% and 0.21% and 2.38% and 2.51% and 3.73%
- Percent Effect (EC50 data) ([3]; 0.390625 uM): -0.72%
- Percent Effect ([3]; 0.625 uM): -1.46% and -0.53%
- Percent Effect (EC50 data) ([3]; 0.78125 uM): 8.72% and 9.53%
- Percent Effect (EC50 data) ([3]; 3.125 uM): 96.73% and 101.34%
- Percent Effect (EC50 data) ([3]; 5 uM): 98.13% and 94.20%
- Percent Effect (EC50 data) ([3]; 6.25 uM): 105.65% and 94.43%
- Percent Effect (EC50 data) ([3]; 25 uM): 105.56%
- Percent Effect (EC50 data) ([3]; 31.6456 uM): 95.69% and 95.38% and 91.49% and 94.38%
- Percent Effect (EC50 data) ([3]; 50 uM): 95.66%
- Percent Effect (EC50 data) ([3]; 100 uM): 87.92% and 94.81% and 91.90% and 95.50%
- % Well Effect (EC50 data) ([4]; minus efflux inhibitor, 0.000949 uM): 1.31% and -4.82% and -7.06% and -4.29% and -0.06%
- % Well Effect (EC50 data) ([4]; minus efflux inhibitor, 0.300053 uM): 80.07% and 80.97% and 97.35% and 80.44% and 65.29% and 92.74%
- % Well Effect (EC50 data) ([4]; minus efflux inhibitor, 0.948767 uM): 81.04% and 93.59% and 91.22% and 85.19% and 91.91% and 88.72%
- % Well Effect (EC50 data) ([4]; minus efflux inhibitor, 3 uM): 79.54% and 90.29% and 94.42% and 83.20% and 94.29% and 89.17%
- % Well Effect (EC50 data) ([4]; plus 0.5 uM efflux inhibitor, 0.094893 uM): 70.28% and 62.16% and 55.71% and 62.75% and 53.71% and 73.85%
- % Well Effect (EC50 data) ([4]; plus 0.5 uM efflux inhibitor, 0.300053 uM): 83.32% and 95.05% and 90.93% and 79.15% and 93.97% and 90.05%
- % Well Effect (EC50 data) ([4]; plus 0.5 uM efflux inhibitor, 0.948767 uM): 82.39% and 96.75% and 87.38% and 79.38% and 95.45% and 97.43%
- % Well Effect (EC50 data) ([4]; plus 0.5 uM efflux inhibitor, 3 uM): 80.02% and 92.89% and 93.90% and 81.60% and 91.07% and 95.86%
- % Well Effect (CC50 data) ([5]; minus efflux inhibitor, 0.031642 uM): -10.74%
- % Well Effect (CC50 data) ([5]; minus efflux inhibitor, 0.100053 uM): -6.45% and -4.39%
- % Well Effect (CC50 data) ([5]; minus efflux inhibitor, 3.16311 uM): -8.68%
- % Well Effect (CC50 data) ([5]; minus efflux inhibitor, 10.0018 uM): -6.54%
- % Well Effect (CC50 data) ([5]; plus 0.5 uM efflux inhibitor, 0.031642 uM): -2.54% and -3.43%
- % Well Effect (CC50 data) ([5]; plus 0.5 uM efflux inhibitor, 0.100053 uM): -2.51% and -2.24% and 4.92%
- % Well Effect (CC50 data) ([5]; plus 0.5 uM efflux inhibitor, 1.00035 uM): -1.28% and -4.08%
- % Well Effect (CC50 data) ([5]; plus 0.5 uM efflux inhibitor, 3.16311 uM): 5.87% and 5.13%
- % Well Effect (CC50 data) ([5]; plus 0.5 uM efflux inhibitor, 31.6256 uM): -2.89% and -4.52%
- % Well Effect (CC50 data) ([5]; plus 0.5 uM efflux inhibitor, 100 uM): 2.77% and -3.47% and 5.60% and -0.62%

SMILES: COc1cccc2[nH]c(C(=O)N[C@@H](CC(C)C)C(=O)N[C@@H](C[C@@H]3CCNC3=O)C(=O)COP(=O)(O)O)cc12 [PF-073048141]
- CC50 [6]: > 50 µM
- CC50 ([6]; n=2): > 50 µM

SMILES: C/C=C/C[C@@H](C)C(=O)[C@H]1C(=O)N[C@@H](C(C)C)C(=O)N(C)CC(=O)N(C)[C@@H](CC(C)C)C(=O)N[C@@H](C(C)C)C(=O)N(C)[C@@H](CC(C)C)C(=O)N[C@@H](C)C(=O)N[C@H](C)C(=O)N(C)[C@@H](CC(C)C)C(=O)N(C)[C@@H](CC(C)C)C(=O)N(C)[C@@H](C(C)C)C(=O)N1C [PSC833]
- % PGP Uptake Activity [7]: 0.2057% (2×) and -0.01029% (2×) and -0.1954% (2×)

SMILES: COc1cccc2[nH]c(C(=O)N[C@@H](CC(C)C)C(=O)N[C@@H](C[C@@H]3CCNC3=O)C(=O)COP(=O)(O)O)cc12 [Pf-4814]
- Reg tox Day 1 Rat with Pf-4814 Actove (Cave, uM) ([8]; Day 1, dosed with Pf-4814, Cave of active): 10.7 µM

SMILES: COc1cccc2[nH]c(C(=O)N[C@@H](CC(C)C)C(=O)N[C@@H](C[C@@H]3CCNC3=O)C(=O)CO)cc12 [Pf-5231]
- Reg tox Day 1 Rat with Pf-5231 Actove (Cave,uM) ([8]; Day 1, dosed with Pf-5231, Cave of active): 10.7 µM
